This is an account of results in US12624023B2, “Sulfonylurea derivatives and uses thereof” (NodThera Limited, priority 2019, dated 2026).

pIC50: −log10 of the molar value. A value given as a limit tells only on which side of the number the result lay.

For orientation: pIC50 means the negative decadic logarithm of the IC50, by convention in mol/L.

The subject of assay [1] is IL-1β release upon NLRP3 activation in human whole blood. In words: Whole blood (WB) assay (IL-1β release, LPS priming + ATP stimulation, HTRF). The settings on record: heparin, diluted 9:5 with media, LPS 1 μg/ml 3 h, compound 30 min, ATP 5 mM 1 h, IL-1β by HTRF. The format is cell-based. Summed up: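 Heparinised human whole blood, diluted 9:5 in medium, was primed with LPS (1 μg/ml final) for 3 h. Compound was then added for 30 min, followed by ATP (5 mM final) for 1 h. Secreted IL-1β was measured in the media by HTRF (655/620 nm).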
(In general: TR-FRET usually uses a lanthanide donor and a delayed reading to cut background.)

Assay [2] concerns IL-1β release upon NLRP3 activation in peripheral blood mononuclear cells (PBMC). In words: PBMC IC50 determination assay (IL-1β release, LPS priming + ATP stimulation, HTRF). The format is cell-based. Particulars: PBMC from buffy coats; LPS 1 μg/ml 3 h, compound 30 min, ATP 5 mM 1 h; IL-1β by HTRF. Summed up:
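Buffy-coat PBMC were primed with LPS (1 μg/ml) for 3 h, given compound for 30 min, then stimulated with 5 mM ATP for 1 h. IL-1β released into the medium was quantified by HTRF, reading 655 and 620 nm.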

Consider `CCc1oc2c(c1NC(=O)NS(=O)(=O)N(c1cnn(C)c1)C1CCCN(C)C1)CCCC2` (centres unmarked) [Compound 94, 3-(2-Ethyl-4,5,6,7-tetrahydro-1-benzofuran-3-yl)-1-[(1-methyl-1H-pyrazol-4-yl)(1-methylpiperidin-3-yl)sulfamoyl]urea], for which the negative-log IC50 (pIC50) was greater than 6.00 in assay [1] and 6.30 to 7.00 in assay [2].
For the molecule `Cc1sc2c(c1NC(=O)NS(=O)(=O)N(c1cnn(C)c1)[C@@H]1CCCN(C)C1)CCC2` [Compound 95, 1-[(1-Methyl-1H-pyrazol-4-yl)[(3R)-1-methylpiperidin-3-yl]sulfamoyl]-3-{2-methyl-4H,5H,6H-cyclopenta[b]thiophen-3-yl}urea], the pIC50 in assay [1] is greater than 6.00; in assay [2], 6.30 to 7.00.
As to `CC(C)c1cc(NC(=O)NS(=O)(=O)N(c2cnn(C)c2)[C@H]2C[C@@H](F)CN(C)C2)c(C(C)C)s1` [Compound 96, 3-[2,5-Bis(propan-2-yl)thiophen-3-yl]-1-{[(3S,5R)-5-fluoro-1-methylpiperidin-3-yl](1-methyl-1H-pyrazol-4-yl)sulfamoyl}urea], the negative-log IC50 (pIC50) was 5.00 to 5.52 in assay [1] and 6.30 to 7.00 in assay [2].
For `Cc1sc2c(c1NC(=O)NS(=O)(=O)N(c1cnn(C)c1)C1CCCN(C)C1)CCCC2` (centres unmarked) [Compound 97, 1-[(1-Methyl-1H-pyrazol-4-yl)(1-methylpiperidin-3-yl)sulfamoyl]-3-(2-methyl-4,5,6,7-tetrahydro-1-benzothiophen-3-yl)urea], the pIC50 was greater than 6.00 in assay [1] and 6.30 to 7.00 in assay [2].
`CN1CCCC(N(c2cnn(C)c2)S(=O)(=O)NC(=O)Nc2c(C(F)(F)F)sc3c2CCC3)C1` (centres unmarked) [Compound 98, 1-[(1-Methyl-1H-pyrazol-4-yl)(1-methylpiperidin-3-yl)sulfamoyl]-3-[2-(trifluoromethyl)-4H,5H,6H-cyclopenta[b]thiophen-3-yl]urea]: the pIC50 in assay [1] was 5.52 to 6.00; in assay [2], 6.30 to 7.00.
The like results for `CC(C)c1cc(NC(=O)NS(=O)(=O)N(c2cnn(C3CC3)c2F)C2CCCN(C)C2)c(C(C)C)s1` (centres unmarked) [Compound 99, 3-[2,5-Bis(propan-2-yl)thiophen-3-yl]-1-[(1-cyclopropyl-5-fluoro-1H-pyrazol-4-yl)(1-methylpiperidin-3-yl)sulfamoyl]urea] were, in that order, 5.52 to 6.00 and greater than 7.00.
The corresponding values for `Cc1cc(NC(=O)NS(=O)(=O)N(c2cnn(C)c2)C2CCN(C)CC2)c(C(C)C)s1` [Compound 100, 1-[(1-Methyl-1H-pyrazol-4-yl)(1-methylpiperidin-4-yl)sulfamoyl]-3-[5-methyl-2-(propan-2-yl)thiophen-3-yl]urea] are greater than 6.00 and 6.30 to 7.00.
For the molecule `Cc1cc(NC(=O)NS(=O)(=O)N(c2cnn(C)c2F)C2CCN(C)CC2)c(C(C)C)s1` [Compound 101, 1-[(5-Fluoro-1-methyl-1H-pyrazol-4-yl)(1-methylpiperidin-4-yl)sulfamoyl]-3-[5-methyl-2-(propan-2-yl)thiophen-3-yl]urea], the pIC50 is greater than 6.00 in assay [1] and greater than 7.00 in assay [2].
As for `COc1sc2c(c1NC(=O)NS(=O)(=O)N(c1cnn(C)c1)C1CCCN(C)C1)CCC2` (centres unmarked) [Compound 102, 3-{2-Methoxy-4H,5H,6H-cyclopenta[b]thiophen-3-yl}-1-[(1-methyl-1H-pyrazol-4-yl)(1-methylpiperidin-3-yl)sulfamoyl]urea], the pIC50 in assay [1] was 5.52 to 6.00; in assay [2], 6.30 to 7.00.
The corresponding values for `Cc1cc(NC(=O)NS(=O)(=O)N(c2cnn(C3CC3)c2)[C@H]2CCCN(C)C2)c(C(C)C)s1` [Compound 103, 1-[(1-Cyclopropyl-1H-pyrazol-4-yl)[(3S)-1-methylpiperidin-3-yl]sulfamoyl]-3-[5-methyl-2-(propan-2-yl)thiophen-3-yl]urea] are greater than 6.00 and greater than 7.00.
The like results for `Cc1cc(NC(=O)NS(=O)(=O)N(c2cnn(C3CC3)c2)[C@@H]2CCCN(C)C2)c(C(C)C)s1` [Compound 104, 1-[(1-Cyclopropyl-1H-pyrazol-4-yl)[(3R)-1-methylpiperidin-3-yl]sulfamoyl]-3-[5-methyl-2-(propan-2-yl)thiophen-3-yl]urea] were, in that order, greater than 6.00 and greater than 7.00.
Take `Cc1cc(NC(=O)NS(=O)(=O)N(c2cnn(C3CC3)c2)[C@@H]2CCCN(C)C2)c(C2CC2)s1` [Compound 106, 1-[(1-Cyclopropyl-1H-pyrazol-4-yl)[(3R)-1-methylpiperidin-3-yl]sulfamoyl]-3-(2-cyclopropyl-5-methylthiophen-3-yl)urea]: the negative logarithm of the IC50 (pIC50) in assay [1] is 5.52 to 6.00; in assay [2], 6.30 to 7.00.
In the case of `Cc1cc(NC(=O)NS(=O)(=O)N(c2cnn(C)c2)[C@H]2CCCN(C)C2)c(C2CC2)s1` [Compound 107, 3-(2-Cyclopropyl-5-methylthiophen-3-yl)-1-[(1-methyl-1H-pyrazol-4-yl)[(3S)-1-methylpiperidin-3-yl]sulfamoyl]urea], the pIC50 in assay [1] is 5.52 to 6.00; in assay [2], 6.30 to 7.00.
On to `Cc1cc(NC(=O)NS(=O)(=O)N(c2cnn(C)c2)[C@@H]2CCCN(C)C2)c(C2CC2)s1` [Compound 108, 3-(2-Cyclopropyl-5-methylthiophen-3-yl)-1-[(1-methyl-1H-pyrazol-4-yl)[(3R)-1-methylpiperidin-3-yl]sulfamoyl]urea], for which the results for the pIC50 in assay [1] and in assay [2] were 5.52 to 6.00 and greater than 7.00, respectively.
The like results for `Cc1sc2c(c1NC(=O)NS(=O)(=O)N(c1cnn(C)c1)C1CCN(C)CC1)CCC2` [Compound 109, 1-[(1-Methyl-1H-pyrazol-4-yl)(1-methylpiperidin-4-yl)sulfamoyl]-3-{2-methyl-4H,5H,6H-cyclopenta[b]thiophen-3-yl}urea] were, in that order, 5.52 to 6.00 and 6.30 to 7.00.
As to `Cc1sc2c(c1NC(=O)NS(=O)(=O)N(c1cnn(C)c1)[C@H]1C[C@H](F)CN(C)C1)CCC2` [Compound 110, 1-{[(3S,5S)-5-Fluoro-1-methylpiperidin-3-yl](1-methyl-1H-pyrazol-4-yl)sulfamoyl}-3-{2-methyl-4H,5H,6H-cyclopenta[b]thiophen-3-yl}urea], the results for the pIC50 in assay [1] and in assay [2] were 5.52 to 6.00 and 6.30 to 7.00, respectively.
The corresponding values for `Cc1cc(NC(=O)NS(=O)(=O)N(c2cnn(C)c2)[C@H]2C[C@H](F)CN(C)C2)c(C(C)C)s1` [Compound 111, 1-{[(3S,5S)-5-Fluoro-1-methylpiperidin-3-yl](1-methyl-1H-pyrazol-4-yl)sulfamoyl}-3-[5-methyl-2-(propan-2-yl)thiophen-3-yl]urea] are 5.52 to 6.00 and 6.30 to 7.00.
The like results for `Cc1cc(NC(=O)NS(=O)(=O)N(c2cnn(C3CC3)c2)C2CCCN(C)C2)c(C(C)C)s1` (centres unmarked) [Compound 112, 1-[(1-Cyclopropyl-1H-pyrazol-4-yl)(1-methylpiperidin-3-yl)sulfamoyl]-3-[5-methyl-2-(propan-2-yl)thiophen-3-yl]urea] were, in that order, greater than 6.00 and greater than 7.00.
As for `Cc1sc2c(c1NC(=O)NS(=O)(=O)N(c1cnn(C3CC3)c1F)C1CCCN(C)C1)CCC2` (centres unmarked) [Compound 113, 1-[(1-Cyclopropyl-5-fluoro-1H-pyrazol-4-yl)(1-methylpiperidin-3-yl)sulfamoyl]-3-{2-methyl-4H,5H,6H-cyclopenta[b]thiophen-3-yl}urea], the negative-log IC50 (pIC50) in assay [1] is greater than 6.00; in assay [2], greater than 7.00.
For `Cc1cc(NC(=O)NS(=O)(=O)N(c2cnn(C3CC3)c2F)C2CCCN(C)C2)c(C(C)C)s1` (centres unmarked) [Compound 114, 1-[(1-Cyclopropyl-5-fluoro-1H-pyrazol-4-yl)(1-methylpiperidin-3-yl)sulfamoyl]-3-[5-methyl-2-(propan-2-yl)thiophen-3-yl]urea], the pIC50 in assay [1] was greater than 6.00; in assay [2] it was greater than 7.00.
Regarding `Cc1cc(NC(=O)NS(=O)(=O)N(c2cnn(C)c2F)C2CCCN(C)C2)c(C(C)C)s1` (centres unmarked) [Compound 115, 1-[(5-Fluoro-1-methyl-1H-pyrazol-4-yl)(1-methylpiperidin-3-yl)sulfamoyl]-3-[5-methyl-2-(propan-2-yl)thiophen-3-yl]urea], the pIC50 in assay [1] is greater than 6.00; in assay [2], greater than 7.00.
Regarding `Cc1sc2c(c1NC(=O)NS(=O)(=O)N(c1cnn(C)c1)[C@H]1CCCN(C)C1)CCC2` [Compound 116, 1-[(1-Methyl-1H-pyrazol-4-yl)[(3S)-1-methylpiperidin-3-yl]sulfamoyl]-3-{2-methyl-4H,5H,6H-cyclopenta[b]thiophen-3-yl}urea], the negative logarithm of the IC50 (pIC50) in assay [1] was greater than 6.00; in assay [2], greater than 7.00.
For the molecule `Cc1sc(C(F)(F)F)cc1NC(=O)NS(=O)(=O)N(c1cnn(C)c1)C1CCCN(C)C1` (centres unmarked) [Compound 117, 1-[(1-Methyl-1H-pyrazol-4-yl)(1-methylpiperidin-3-yl)sulfamoyl]-3-[2-methyl-5-(trifluoromethyl)thiophen-3-yl]urea], the values for the pIC50 in assay [1] and in assay [2] were greater than 6.00 and 6.30 to 7.00, respectively.
For `Cc1sc2c(c1NC(=O)NS(=O)(=O)N(c1cnn(C3CC3)c1)C1CCCN(C)C1)CCC2` (centres unmarked) [Compound 118, 1-[(1-Cyclopropyl-1H-pyrazol-4-yl)(1-methylpiperidin-3-yl)sulfamoyl]-3-{2-methyl-4H,5H,6H-cyclopenta[b]thiophen-3-yl}urea], the negative-log IC50 (pIC50) in assay [1] was greater than 6.00; in assay [2], greater than 7.00.
Take `Cc1sc2c(c1NC(=O)NS(=O)(=O)N(c1cnn(C)c1F)C1CCCN(C)C1)CCC2` (centres unmarked) [Compound 119, 1-[(5-Fluoro-1-methyl-1H-pyrazol-4-yl)(1-methylpiperidin-3-yl)sulfamoyl]-3-{2-methyl-4H,5H,6H-cyclopenta[b]thiophen-3-yl}urea]: the negative logarithm of the IC50 (pIC50) in assay [1] is greater than 6.00; in assay [2] it was greater than 7.00.
